# Reference: US20160089464A1, “MALODOR REDUCTION COMPOSITIONS” (The Procter & Gamble Company, priority 2014, published 2016)
# Assay: Comment Code material properties: vapor pressure, ClogP, probability of ingredient color instability, odor detection threshold, melamine formaldehyde PMC headspace response ratio and leakage, liquid dish neat product liquid-air partition coefficient
# Format: physicochemical
# Conditions: Table 1 materials; each letter of the code is one property class (vapor pressure, ClogP, color instability, odor detection threshold, PMC headspace ratio, PMC leakage, liquid dish liquid-air partition coefficient)
row,Structure (SMILES),Comment Code
1,CCCOC(C)OCCc1ccccc1 (centres unmarked) [Material 766],CEFHJK
2,CCCOC(C)OCCC [Material 767],ACEFGIKL
3,COCCOC(C)OCc1ccccc1 (centres unmarked) [Material 768],BCEFHJK
4,CCCCCC(C=O)=Cc1ccc(C)cc1 [Material 769],DHJ
5,C=CCCCCCCCC=O [Material 770],ADHKL
6,O=C1CCCCCC=CCCCCCCCCO1 [Material 771],DGJ
7,C=C(C)C1CCC2(C)CCC=C(C)C2C1 (centres unmarked) [Material 774],BDEFHJK
8,CC1=CCCC2(C)CCC(C(C)(C)O)CC12 (centres unmarked) [Material 775],DEFHJK
9,CC(C)c1ccc2ncccc2c1 [Material 778],CEFHJK
10,CC1(C)C2CC=C(CCC=O)C1C2 (centres unmarked) [Material 781],BCFHJK
11,CC(=O)CCCC(C)CCCC(C)CCCC(C)C (centres unmarked) [Material 782],DEFHJK
12,C=CC1(C)CCC(C(=C)C)O1 (centres unmarked) [Material 786],ACGIJKL
13,O=C1CCCC=CCCCCCCCCCC1 [Material 788],DEFGJK
14,CC1=CCC(O)(C(C)C)CC1 (centres unmarked) [Material 791],BCHIJK
15,C=CCCC(=O)c1ccccc1 [Material 792],BCEFHIK
16,CC1=CCC(O)(C(C)C)CC1 (centres unmarked) [Material 800],BCHIJK
17,Cc1coc2c1CCC(C)C2 (centres unmarked) [Material 802],BCEFHIJKL
18,COc1ccc(CCC(C)=O)cc1 [Material 803],BCEFHJK
19,CC1C(=O)CC2(C)CCCC(C)(C)C23CC13 (centres unmarked) [Material 804],BDEFHJK
20,CCC=C1OC(=O)c2ccccc21 [Material 805],CEFHK
21,CCCCCCCCCC=CC=O [Material 806],BDFHJK
22,CC(CC=O)CCc1ccccc1 (centres unmarked) [Material 807],BDFHJK
23,CCC=CCCOC(=O)CC(C)C [Material 814],ADEFHJKL
24,CCC(C)CCC(C)(CC)OC(C)=O (centres unmarked) [Material 821],ADEFHIJKL
25,CC(C)c1ccc(CCC=O)cc1 [Material 826],BDFHJK
26,CCCCCCCCC=CC#N [Material 827],BDEFHJK
27,CCCCCCCCC=CC=O [Material 828],ADHJK

row,Structure (SMILES),Comment Code
1,CC/C=C/CC/C=C/C=O [Material 829],ACHKL
2,CCCC(=O)OCCc1ccccc1 [Material 831],DEFHJK
3,O=CC(=Cc1ccco1)c1ccccc1 [Material 833],CHJ
4,OCCOc1ccccc1 [Material 834],BCEFGIK
5,CCCCCCC=CC=O [Material 837],ADHKL
6,CCCCCCCC(C)O (centres unmarked) [Material 839],BDEFGIKL
7,CCCCCCCC(C)=O [Material 840],ADFHIKL
8,CC(C)Cc1ccc2ccccc2n1 [Material 849],CEFHJK
9,CCCCCC=C1CCCC1=O [Material 850],DFHJKL
10,CCCCCCCC1CCCO1 (centres unmarked) [Material 852],BDEFHJKL
11,CCCCCCCC=CC=O [Material 856],ADHKL
12,CCC=CCCC=CC=O [Material 864],ACHKL
13,CCC=CCCC=CCO [Material 865],ACEFHK
14,CCC(C)CCCC(C)C=O (centres unmarked) [Material 866],ADFGIJKL
15,CCCCCCCCCCO [Material 868],BDEFGJK
16,CCCCCC=COC(C)=O [Material 869],ACEFHKL
17,C=CCCCCCCCCCO [Material 870],DEFHJK
18,C=CCCCCCCCCC=O [Material 871],ADHJK
19,CC1=C2CC(C(C)(C)O)CCC2(C)CCC1 (centres unmarked) [Material 872],DFHJK
20,CC12CCC(CC1)C(C)(C)S2 [Material 873],ADEFHIJKL
21,C=CC=CC=CCCCCC [Material 876],ADEFHJKL
22,CCC(C)(O)CCC=C(C)C (centres unmarked) [Material 877],BCEFGIJKL
23,CC(=O)OC1C2(C)CCC(C2)C1(C)C (centres unmarked) [Material 878],ADEFHIJKL
24,CC1C(C)(C)c2ccccc2C1(C)C [Material 879],ADHIJKL
25,CC(=O)OC(C)CCC=C(C)CCC=C(C)C (centres unmarked) [Material 881],DEFHJK
26,CCCCCCCC/C=C\CC=O [Material 884],BCFHJK
27,CC(=O)OC(C)CC/C=C(\C)CCC=C(C)C (centres unmarked) [Material 890],DEFHJK

row,Structure (SMILES),Comment Code
1,C/C(=C/C#N)CCc1ccccc1 [Material 892],DEFHJK
2,CC1CCC2(O1)C(C)(C)CCCC2(C)O (centres unmarked) [Material 893],DFHIJK
3,C/C(=C\C#N)CCc1ccccc1 [Material 894],CEFHJK
4,C=C(C)C1CCC(C)C(O)C1 (centres unmarked) [Material 897],BCEFHIJKL
5,CC(=CCC1CC=C(C)C1(C)C)CO (centres unmarked) [Material 908],CHJK
6,CC1=CC2CC(C3OCCO3)C1CC2C(C)C (centres unmarked) [Material 912],DEFHJK
7,C=C1CCCC(C)(C)C1C=C(C)C(C)=O (centres unmarked) [Material 913],BDHIJK
8,CC(C)c1cccc(C(C)CC=O)c1 (centres unmarked) [Material 914],BDHJK
9,C=CC(C)(CCC=C(C)C)OC(C)OCC (centres unmarked) [Material 916],BDEFHJK
10,CCC(=O)OC1CC2CC1C1CC=CC21 (centres unmarked) [Material 919],CEFHJK
11,CC1=C2CCC(C)C2CC(C(C)(C)O)CC1 (centres unmarked) [Material 920],DEFHJK
12,O=C(Cc1ccccc1)OCc1ccccc1 [Material 922],DHJ
13,C/C=C/c1cc(OC)c(OC)cc1OC [Material 924],BCFGJK
14,CC(C)(C=O)CC1=CCC2CC1C2(C)C (centres unmarked) [Material 925],BDFHJK
15,CC(C)=CCCC(C)C12CC=C(C)C1C2 (centres unmarked) [Material 926],DEFHJKL
16,Cc1cccc(CCO)c1 [Material 928],BCEFHIK
17,CCC=CCC=CCCO [Material 929],ACEFHK
18,CCCCCCCCCCC=CC=O [Material 930],BDFHJK
19,CC1CCC2(O)C(C)(C)C3CCC2(C)C1C3 (centres unmarked) [Material 933],DEFHIJK
20,CCCCCC(=O)Oc1ccc(C)cc1 [Material 939],DEFHJK
21,CCCCCCC1OC(=O)CC1C (centres unmarked) [Material 941],BDEFHIJKL
22,CCCCC/C=C/C=C\C(=O)OCC [Material 942],BDEFHJK
23,N#CC(=C1CCCCC1)c1ccccc1 [Material 945],DFHJK
24,C=C(C)C1CC=C(C=O)CC1 (centres unmarked) [Material 946],ACHIJK
25,C=C(C)C1CC=C(COC(C)=O)CC1 (centres unmarked) [Material 947],DFHJK

# Same assay, conditions: cell strings several class symbols together; each letter is one property class of L1
row,Structure (SMILES),Comment Code
1,Cc1ccc2ncccc2c1 [Material 777],BCEFHIKL
2,CCC(C)CC(CC)CCCC(C)O (centres unmarked) [Material 779],BDEFGIJKL
3,CCC(=O)CC(C)CC (centres unmarked) [Material 784],ACFGIKL
4,O=C1CCCC=CCCCCCCCCCC1 [Material 788],DEFGJK
5,C=Cc1ccc(O)cc1 [Material 789],BCHIK
6,CCc1ccc(OC)c(O)c1 [Material 797],CEFHIK
7,CC1C(=O)CC2(C)CCCC(C)(C)C23CC13 (centres unmarked) [Material 804],BDEFHJK
8,Cc1n[nH]cc1-c1ccccc1 [Material 808],CEFHK
9,CC1CCC(=O)C1=O (centres unmarked) [Material 810],ACEFGIKL
10,COc1cc(C)cc(O)c1 [Material 811],BCHIK
11,COC(C)(C)CCO [Material 812],ACGIKL
12,CCC=CCCO [Material 817],ACEFHIKL
13,C=C(C=O)C(C)CCC=C(C)C (centres unmarked) [Material 819],ADFHIJK
14,CC(C)CCCC(C)CCO (centres unmarked) [Material 820],BDEFGIJKL
15,CC(=O)OCCc1ccccc1 [Material 832],BCEFHK
16,CCC(=O)OCCc1ccccc1 [Material 835],BCEFHJK
17,CCCCCC1CCCC1O (centres unmarked) [Material 836],DEFHIKL
18,CCCCCCCC1(C)OCC(C)O1 (centres unmarked) [Material 838],BDEFHJK
19,CCC(C)c1nccnc1OC (centres unmarked) [Material 845],BCEFGIK
20,CNC(=O)C(C)(C(C)C)C(C)C [Material 846],ACEFGIJK
21,CC(C)CC=C(C=O)C(C)C [Material 847],ADFGIJKL
22,Cc1csc(C(C)C)n1 [Material 848],ACHIJKL

row,Structure (SMILES),Comment Code
1,CCCC=CCO [Material 851],ACEFHIKL
2,CC(C)C12CCC(C)(CC1)O2 [Material 875],ADGIJKL
3,CC=CC(=O)C1C(C)=CCCC1(C)C (centres unmarked) [Material 880],BDHIJK
4,CCC/C=C\CCOC(C)=O [Material 882],ACEFHKL
5,CC1=CC(=O)C2CC1C2(C)C (centres unmarked) [Material 883],ACEFGIJKL
6,C=C[C@](C)(O)CCC=C(C)C [Material 888],BCEFGIJK
7,CC(C)=CCCC(C)CC=O (centres unmarked) [Material 889],ACHIJKL
8,CC(C)=CCCC(C)CC=O (centres unmarked) [Material 891],ACHIJKL
9,CC(C)=CCCC(C)CCO (centres unmarked) [Material 899],BCHIJKL
10,CC(C)=CCCC(C)CCO (centres unmarked) [Material 900],BCHIJKL
11,CC1=CC[C@@H]2C[C@H]1C2(C)C [Material 901],ADEFGIJKL
12,C=C(C)C1CC=C(C)C(=O)C1 (centres unmarked) [Material 902],ACGIJKL
13,CC1=CC[C@H]2C[C@@H]1C2(C)C [Material 903],ADEFGIJKL
14,CCC(C)C(=O)OC (centres unmarked) [Material 904],ACEFGIKL
15,C/C=C(\C)C(=O)OCCCCCC [Material 909],BDEFHJKL
16,C=CCOC(=O)COC1CCCCC1 [Material 918],CHJK
17,CCC(=O)OC1CC2CC1C1CC=CC21 (centres unmarked) [Material 919],CEFHJK
18,CC12CCCC(C)(CC1)C2=NO [Material 921],CFHIJK
19,C=C(OC(C)=O)c1ccccc1 [Material 931],ACEFHIK
20,CC1CCC2(O)C(C)(C)C3CCC2(C)C1C3 (centres unmarked) [Material 933],DEFHIJK
21,Cc1ccc(C(C)C)cc1 [Material 940],ADGIJKL
